The test concerns HCV Huh-luc/neo-ET replicon cells. Nature of the test: Luciferase-Based HCV Replicon Assay (EC50 (1b)). It is filed as cell-based. The conditions noted are these: Hepatitis C virus, 72 hours exposure, luciferase activity. The essentials: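 Replicon cells seeded, then exposed 24 h later to a compound concentration series in triplicate for 72 h. Luciferase luminescence read; % inhibition vs no-compound control, with 100 nM BILN-2061 as background, used to derive EC50 (1b).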

From patent publication US8222404B2, “[1,2,4]Thiadiazin-3-yl acetic acid compound and methods of making the acetic acid compound” (Anadys Pharmaceuticals, Inc., priority 2008, dated 2012) come the findings set out here.

In the case of `Cc1cc(CN2C(=O)C(C3=NS(=O)(=O)c4c(CNS(C)(=O)=O)csc4N3)=C(O)[C@@H]3[C@H]4CC[C@H](C4)[C@@H]32)ccc1F` [Example 53, N-{3-[(1R,2S,7R,8S)-3-(4-Fluoro-3-methyl-benzyl)-6-hydroxy-4-oxo-3-aza-tricyclo[6.2.1.0^2,7]undec-5-en-5-yl]-1,1-dioxo-1,4-dihydro-1λ^6-thieno[2,3-e][1,2,4]thiadiazin-7-ylmethyl}-methanesulfonamide], the EC50 fell in the range of 5 to 20 nM. `CS(=O)(=O)NCc1csc2c1S(=O)(=O)N=C(C1=C(O)[C@@H]3C4CCC(CC4)[C@@H]3NC1=O)N2` [Example 82, N-[3-((2S,7R)-6-Hydroxy-4-oxo-3-aza-tricyclo[6.2.2.0^2,7]dodec-5-en-5-yl)-1,1-dioxo-1,4-dihydro-1λ^6-thieno[2,3-e][1,2,4]thiadiazin-7-ylmethyl]-methanesulfonamide] registered an EC50 greater than 1000 nM. With `CS(=O)(=O)NCc1csc2c1S(=O)(=O)N=C(C1=C(O)[C@@H]3CCC[C@@H]3N(Cc3ccsc3)C1=O)N2` [Example 127, (4aR,7aS)-N-[3-(4-Hydroxy-2-oxo-1-thiophen-3-ylmethyl-2,4a,5,6,7,7a-hexahydro-1H-[1]pyrindin-3-yl)-1,1-dioxo-1,4-dihydro-1λ^6-thieno[2,3-e][1,2,4]thiadiazin-7-ylmethyl]-methanesulfonamide] the figure was 5 to 20 nM. With `CC(C)CCn1nc(-c2cccs2)c(O)c(C2=NS(=O)(=O)c3c(CNS(C)(=O)=O)csc3N2)c1=O` [Example 28, N-{3-[5-Hydroxy-2-(3-methyl-butyl)-3-oxo-6-thiophen-2-yl-2,3-dihydro-pyridazin-4-yl]-1,1-dioxo-1,4-dihydro-1λ^6-thieno[2,3-e][1,2,4]thiadiazin-7-ylmethyl}-methanesulfonamide] the figure was 100 to 1000 nM; with `CS(=O)(=O)NCc1csc2c1S(=O)(=O)N=C(C1=C(O)C3(CC3)CN(Cc3ccc(F)cc3)C1=O)N2` [Example 11, N-{3-[5-(4-Fluoro-benzyl)-8-hydroxy-6-oxo-5-aza-spiro[2.5]oct-7-en-7-yl]-1,1-dioxo-1,4-dihydro-1λ^6-thieno[2,3-e][1,2,4]thiadiazin-7-ylmethyl}-methanesulfonamide], greater than 1000 nM; with `COc1cc(CN2C(=O)C(C3=NS(=O)(=O)c4c(CNS(C)(=O)=O)csc4N3)=C(O)[C@@H]3[C@H]4CC[C@H](C4)[C@@H]32)ccc1F` [Example 38, N-{3-[(1R,2S,7R,8S)-3-(4-Fluoro-3-methoxy-benzyl)-6-hydroxy-4-oxo-3-aza-tricyclo[6.2.1.0^2,7]undec-5-en-5-yl]-1,1-dioxo-1,4-dihydro-1λ^6-thieno[2,3-e][1,2,4]thiadiazin-7-ylmethyl}-methanesulfonamide], 5 to 20 nM.

With `CCCC1CC(O)=C(C2=NS(=O)(=O)c3c(CNS(C)(=O)=O)csc3N2)C(=O)N1Cc1ccc(F)cc1` (racemic) [Example 5, rac-N-{3-[1-(4-Fluoro-benzyl)-4-hydroxy-2-oxo-6-propyl-1,2,5,6-tetrahydro-pyridin-3-yl]-1,1-dioxo-1,4-dihydro-1λ^6-thieno[2,3-e][1,2,4]thiadiazin-7-ylmethyl}-methanesulfonamide], the EC50 is 100 to 1000 nM. As for `CS(=O)(=O)NCc1csc2c1S(=O)(=O)N=C(C1=C(O)[C@@H]3[C@@H]4CC[C@@H](C4)[C@@H]3N(Cc3ccc(F)cc3)C1=O)N2` [Example 89, N-{3-[(1S,2S,7R,8R)-3-(4-Fluoro-benzyl)-6-hydroxy-4-oxo-3-aza-tricyclo[6.2.1.0^2,7]undec-5-en-5-yl]-1,1-dioxo-1,4-dihydro-1λ^6-thieno[2,3-e][1,2,4]thiadiazin-7-ylmethyl}-methanesulfonamide], the figure is no more than 5 nM; as for `CS(=O)(=O)NCc1csc2c1S(=O)(=O)N=C(C1=C(O)[C@@H]3CCC[C@@H]3N(CC3CCCCC3)C1=O)N2` [Example 103, (4aR,7aS)-N-[3-(1-Cyclohexylmethyl-4-hydroxy-2-oxo-2,4a,5,6,7,7a-hexahydro-1H-[1]pyrindin-3-yl)-1,1-dioxo-1,4-dihydro-1λ^6-thieno[2,3-e][1,2,4]thiadiazin-7-ylmethyl]-methanesulfonamide], 20 to 100 nM; as for `CC(C)CCN1C(=O)C(C2=NS(=O)(=O)c3c(CNS(C)(=O)=O)csc3N2)=C(O)C2C3CCC(O3)C21` (racemic) [Example 63, (rac-di-exo)-N-{3-[6-Hydroxy-3-(3-methyl-butyl)-4-oxo-11-oxa-3-aza-tricyclo[6.2.1.0^2,7]undec-5-en-5-yl]-1,1-dioxo-1,4-dihydro-1λ^6-thieno[2,3-e][1,2,4]thiadiazin-7-ylmethyl}-methanesulfonamide], 20 to 100 nM.

`CC(C)CCC1(C)CN(C2CCC2)C(=O)C(C2=NS(=O)(=O)c3c(CNS(C)(=O)=O)csc3N2)=C1O` (racemic) [Example 20, rac-N-{3-[1-Cyclobutyl-4-hydroxy-5-methyl-5-(3-methyl-butyl)-2-oxo-1,2,5,6-tetrahydro-pyridin-3-yl]-1,1-dioxo-1,4-dihydro-1λ^6-thieno[2,3-e][1,2,4]thiadiazin-7-ylmethyl {-methanesulfonamide] had an EC50 of 100 to 1000 nM. With `CS(=O)(=O)NCc1csc2c1S(=O)(=O)N=C(C1=C(O)[C@@H]3[C@@H]4CC[C@@H](C4)[C@@H]3N(Cc3ccccc3)C1=O)N2` [Example 39, N-[3-((1S,2S,7R,8R)-3-Benzyl-6-hydroxy-4-oxo-3-aza-tricyclo[6.2.1.0^2,7]undec-5-en-5-yl)-1,1-dioxo-1,4-dihydro-1λ^6-thieno[2,3-e][1,2,4]thiadiazin-7-ylmethyl]-methanesulfonamide] the figure was 5 to 20 nM; with `CS(=O)(=O)NCc1csc2c1S(=O)(=O)N=C(C1=C(O)[C@@H]3[C@@H]4CC[C@@H](C4)[C@@H]3N(Cc3ccc(F)c(Cl)c3)C1=O)N2` [Example 95, N-{3-[(1 S,2S,7R,8R)-3-(3-Chloro-4-fluoro-benzyl)-6-hydroxy-4-oxo-3-aza-tricyclo[6.2.1.0^2,7]undec-5-en-5-yl]-1,1-dioxo-1,4-dihydro-1λ^6-thieno[2,3-e][1,2,4]thiadiazin-7-ylmethyl}-methanesulfonamide], 20 to 100 nM; with `CS(=O)(=O)NCc1csc2c1S(=O)(=O)N=C(C1=C(O)C3C4CCCC(CC4)C3N(Cc3ccc(F)cc3)C1=O)N2` (racemic) [Example 142, (rac-di-exo)-N-{3-[3-(4-Fluoro-benzyl)-6-hydroxy-4-oxo-3-aza-tricyclo[6.3.2.0^2,7]tridec-5-en-5-yl]-1,1-dioxo-1,4-dihydro-1λ^6-thieno[2,3-e][1,2,4]thiadiazin-7-ylmethyl}-methanesulfonamide], 20 to 100 nM.

Turning to `CC(C)(C)C1CN(Cc2ccc(F)cc2)C(=O)C(C2=NS(=O)(=O)c3c(CNS(C)(=O)=O)csc3N2)=C1O` (racemic) [Example 14, rac-N-{3-[5-tert-Butyl-1-(4-fluoro-benzyl)-4-hydroxy-2-oxo-1,2,5,6-tetrahydro-pyridin-3-yl]-1,1-dioxo-1,4-dihydro-1λ^6-thieno[2,3-e][1,2,4]thiadiazin-7-ylmethyl}-methanesulfonamide], the concentration giving a half-maximal response (EC50) lay in the range of 5 to 20 nM. With `CC(=O)NCc1csc2c1S(=O)(=O)N=C(C1=C(O)[C@@H]3[C@H]4CC[C@H](C4)[C@@H]3N(Cc3ccc(F)cc3)C1=O)N2` [Example 35, N-{3-[(1R,2S,7R,8S)-3-(4-Fluoro-benzyl)-6-hydroxy-4-oxo-3-aza-tricyclo[6.2.1.0^2,7]undec-5-en-5-yl]-1,1-dioxo-1,4-dihydro-1λ^6-thieno[2,3-e][1,2,4]thiadiazin-7-ylmethyl}-acetamide] the figure was 5 to 20 nM; with `CS(=O)(=O)NCc1csc2c1S(=O)(=O)N=C(C1=C(O)C3C4CCC(O4)C3N(Cc3ccccc3)C1=O)N2` (racemic) [Example 45, (rac-di-exo)-N-[3-(3-Benzyl-6-hydroxy-4-oxo-11-oxa-3-aza-tricyclo[6.2.1.0^2,7]undec-5-en-5-yl)-1,1-dioxo-1,4-dihydro-1λ^6-thieno[2,3-e][1,2,4]thiadiazin-7-ylmethyl]-methanesulfonamide], 20 to 100 nM; with `CC(C)(C)CCN1C(=O)C(C2=NS(=O)(=O)c3c(CNS(C)(=O)=O)csc3N2)=C(O)[C@@H]2[C@H]3CC[C@H](C3)[C@@H]21` [Example 67, N-{3-[(1R,2S,7R,8S)-3-(3,3-Dimethyl-butyl)-6-hydroxy-4-oxo-3-aza-tricyclo[6.2.1.0^2,7]undec-5-en-5-yl]-1,1-dioxo-1,4-dihydro-1λ^6-thieno[2,3-e][1,2,4]thiadiazin-7-ylmethyl}-methanesulfonamide], 5 to 20 nM. As for `COc1ccc(CN2C(=O)C(C3=NS(=O)(=O)c4c(CNS(C)(=O)=O)csc4N3)=C(O)[C@@H]3[C@H]4CC[C@H](C4)[C@@H]32)c(OC)c1` [Example 72, N-{3-[(1R,2S,7R,8S)-3-(2,4-Dimethoxy-benzyl)-6-hydroxy-4-oxo-3-aza-tricyclo[6.2.1.0^2,7]undec-5-en-5-yl]-1,1-dioxo-1,4-dihydro-1λ^6-thieno[2,3-e][1,2,4]thiadiazin-7-ylmethyl}-methanesulfonamide], the figure is greater than 1000 nM; as for `CS(=O)(=O)NCc1csc2c1S(=O)(=O)N=C(C1=C(O)C3C4CCC(O4)C3N(Cc3ccc(F)cc3)C1=O)N2` (racemic) [Example 90, (rac-di-exo)-N-{3-[3-(4-Fluoro-benzyl)-6-hydroxy-4-oxo-11-oxa-3-aza-tricyclo[6.2.1.0^2,7]undec-5-en-5-yl]-1,1-dioxo-1,4-dihydro-1λ^6-thieno[2,3-e][1,2,4]thiadiazin-7-ylmethyl}-methanesulfonamide], 5 to 20 nM; as for `COc1ccc(CN2C(=O)C(C3=NS(=O)(=O)c4c(CNS(C)(=O)=O)csc4N3)=C(O)[C@@H]3C4CCC(CC4)[C@@H]32)c(OC)c1` [Example 74, N-{3-[(2S,7R)-3-(2,4-Dimethoxy-benzyl)-6-hydroxy-4-oxo-3-aza-tricyclo[6.2.2.0^2,7]dodec-5-en-5-yl]-1,1-dioxo-1,4-dihydro-1λ^6-thieno[2,3-e][1,2,4]thiadiazin-7-ylmethyl}-methanesulfonamide], greater than 1000 nM.

One may read the EC50 as the concentration at which the effect is half-maximal.
